Assay results from article PMC7688903 (Frontiers in Microbiology, 2020).
Entries after “also recorded” stand apart in the source; their conditions may differ. Where no end group is shown, it is not given here. [ ]: non-standard residue; d: D form. 2Thi = N[C@@H](Cc1cccs1)C(=O)O

Legend:
[1] = plasma from healthy volunteers; conditions: human, 37°C, up to 36 h
Trypsin = assay: trypsin in 0.1 M NH4HCO3 buffer (pH 8.2); conditions: 37°C, up to 24 h

Row | Substance | fragment found [1] | fragment found (Trypsin)
1 | DabHorLFDabDabLLDabYLHorDabF | (Hor) LFDabDabLLDabYLHorDabF 3–14, major, 12 h; also recorded: (Dab) HorLFDabDabLLDabYLHorDabF 2–14, major, 12 h | (Dab) HorLFDab (Dab) 2–5, major, 18 h; also recorded: (Dab) HorLFDabDabLLDab (Y) 2–9, major, 18 h
2 | DabHorLFDabDabLLDabYLRDabF | (Hor) LFDabDabLLDabYLRDabF, major, 12 h | (Dab) YLRDab (F) 10–13, major, 18 h; also recorded: (Dab) DabLLDabYLRDab (F) 6–13, major, 18 h; also recorded: (Hor) LFDabDabLLDabYLR (Dab) 3–12, major, 18 h; also recorded: (Dab) HorLFDabDabLLDab (Y) 2–9, major, 18 h; also recorded: DabHorLFDabDabLLDabYLR (Dab) 1–12, major, 18 h
3 | DabRLThiDapDabLLDabYLHorDabF | (R) LThiDapDabLLDabYLHorDab F 3–14, major, 12 h; also recorded: (Dab) RLThiDapDabLLDabYLHorDabF 2–14, major, 12 h | (Dab) RLThiDapDabLLDab (Y) 2–9, major, 18 h; also recorded: (R) LThiDapDabLLDabYLHor (Dab) 3–12, major, 18 h
4 | DapHorLFDapDapLLDabYLHorDabF | (Hor) LFDapDapLLDabYLHorDabF 3–14, major, 12 h; also recorded: (Dap) HorLFDapDapLLDabYLHorDabF 2–14, major, 12 h | DapHorLFDapDapLLDab (Y) 1–9, major, 18 h; also recorded: DapHorLFDapDapLLDabYLHor (Dab) 1–12, major, 18 h
5 | DapHorLFDapDapLLDabYLHorDabThi | (Dap) HorLFDapDapLLDabYLHorDabThi 2–14, major, 12 h | (Dap) HorLFDap (Dap) 2–5, major, 18 h; also recorded: DapHorLFDapDapLLDab (Y) 1–9, major, 18 h; also recorded: DapHorLFDapDapLLDabYLHor (Dab) 1–12, major, 18 h; also recorded: (Dap) HorLFDapDapLLDabYLHorDabThi 2–14, major, 18 h
6 | HorRLFKKLLKYLRKThi | (R) LFKKLLKYLRKThi 3–14, major, 12 h; also recorded: (Hor) RLFKKLLKYLRKThi 2–14, major, 12 h | (K) KLLK (Y) 6–9, major, 18 h; also recorded: (R) LFKK (L) 3–6, major, 18 h; also recorded: (K) LLK (Y) 7–9, major, 18 h; also recorded: (K) YLR (K) 10–12, major, 18 h; also recorded: (R) LFK (K) 3–5, major, 18 h
7 | KRLFKKLLKYLRKF | (R) LFKKLLKYLRKF 3–14, major, 12 h; also recorded: (K) RLFKKLLKYLRKF 2–14, major, 12 h | (R) LFK (K) 3–5, major, 18 h; also recorded: (K) LLK (Y) 7–9, major, 18 h; also recorded: (K) YLR (K) 10–12, major, 18 h; also recorded: (K) KLLK (Y) 6–9, major, 18 h; also recorded: (R) LFKK (L) 3–6, major, 18 h
8 | KRLFKKLLKYLRK[2Thi] | (L) FKKLLKYLRKThi 4–14, major, 12 h | (K) Thi 14, major, 18 h; also recorded: (K) KLLK (Y) 6–9, major, 18 h; also recorded: (R)LFKK (L) 3–6, major, 18 h; also recorded: (K) LLK (Y) 7–9, major, 18 h; also recorded: (K) YLR (K) 10–12, major, 18 h; also recorded: (R) LFK (K) 3–5, major, 18 h
9 | KRLFKKLLKYLRkF | (K) RLFK(K) 2–5, major, 12 h; also recorded: KRLFKKLLKYL (R) 1–11, major, 12 h; also recorded: (K) RLFKKLLKYLRkF 2–14, major, 12 h | (K) KLLK (Y) 6–9, major, 18 h; also recorded: (R) LFKK (L) 3–6, major, 18 h; also recorded: (K) LLK (Y) 7–9, major, 18 h; also recorded: (K) YLR (k) 10–12, major, 18 h; also recorded: (R) LFK (K) 3–5, major, 18 h; also recorded: (K) YLRkF 10–14, major, 18 h
10 | KRLFKRLFKYLRRF | (K) YLRRF 10–14, major, 12 h; also recorded: (K) RLFKRLFKYLRRF 2–14, major, 12 h | (R) RF 13–14, major, 18 h; also recorded: (K) YLRR (F) 10–13, major, 18 h; also recorded: (R) F 14, major, 18 h; also recorded: (K) YLR (R) 10–12, major, 18 h
11 | KRL[2Thi]KKLLKYLRK[2Thi] | (R) LThiKKLLKYLRKThi 3–14, major, 12 h; also recorded: (K) RLThiKKLLKYLRKThi 2–14, major, 12 h | (K) Thi 14, major, 18 h; also recorded: (R) LThiKK (L) 3–6, major, 18 h; also recorded: (K) KLLK (Y) 6–9, major, 18 h; also recorded: (K) LLK (Y) 7–9, major, 18 h; also recorded: (K) YLR (K) 10–12, major, 18 h; also recorded: (R) LThiK (K) 3–5, major, 18 h
12 | RRIFKRLFKYLRRF | (R) IFKRLFKYLRRF 3–14, major, 12 h; also recorded: (R) RIFKRLFKYLRRF 2–14, major, 12 h | (R) RF 13–14, major, 18 h; also recorded: (K) YLRR (F) 10–13, major, 18 h; also recorded: (R) F 14, major, 18 h; also recorded: (K) YLR (R) 10–12, major, 18 h
